Laboratory results published in US20230382924A1, “MODULATORS OF CYSTIC FIBROSIS TRANSMEMBRANE CONDUCTANCE REGULATOR” (VERTEX PHARMACEUTICALS INCORPORATED, priority 2020, published 2023).
pEC50: −log10 of the molar value.

Columns and labels:
CFTR [1] = biological target: T1, CFTR (Homo sapiens, UniProt P13569); experiment: Membrane Potential Dye, Enteroid Assay B; assay type: cell-based; settings: for pEC50: read-out: Ent. B EC50
Experimental: Base medium (ADF+++) consisted of Advanced DMEM/Ham's F12, 2 mM Glutamax, 10 mM HEPES, […] penicillin/streptomycin.
Bath 1 Buffer consisted of 1 mM MgCl2, 160 mM NaCl, 4.5 mM KCl, 10 mM HEPES, 10 mM Glucose, 2 mM CaCl2).
Chloride Free Buffer consisted of 1 mM Magnesium Gluconate, 2 mM Calcium Gluconate, 4.5 mM Potassium Gluconate, 160 mM Sodium Gluconate, 10 mM HEPES, 10 mM Glucose.
Bath 1 Dye Solution consisted of Bath 1 Buffer, 0.04% Pluronic F127, 20 μM Methyl Oxonol, 30 μM CaCCinh-A01, 30 μM Chicago Sky Blue.
Chloride Free Dye Solution consisted of Chloride Free Buffer, 0.04% Pluronic F127, 20 μM Methyl Oxonol, 30 μM CaCCinh-A01, 30 μM Chicago Sky Blue.
3. Enteroid Cell Harvesting and Seeding
Cells were recovered in cell recovery solution, collected by centrifugation at 650 rpm for 5 min at 4° C., resuspended in TryPLE and incubated for 5 min at 37° C. Cells were then collected by centrifugation at 650 rpm for 5 min at 4° C. and resuspended in IEMM containing 10 μM ROCK inhibitor (RI).
5. Membrane Potential Dye, Enteroid Assay B
Briefly, cells were washed 5 times in Bath 1 Buffer. Bath 1 Dye Solution was added and the cells were incubated for 25 min at room temperature. Following dye incubation, cells were washed 3 times in Chloride Free Dye Solution. Chloride transport was initiated by addition of Chloride Free Dye Stimulation Solution and the fluorescence signal was read for 15 min.

CFTR [2] = biological target: T1, CFTR; experiment: Membrane Potential Dye, Enteroid Assay A; assay type: cell-based; settings: for pEC50: read-out: Ent. A EC50
Procedure, shortened: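 Enteroid cells were loaded with methyl oxonol membrane potential dye (plus CaCCinh-A01 and Chicago Sky Blue) for 25 min at room temperature. Chloride transport was started by switching to chloride-free gluconate stimulation solution, with fluorescence read for 15 min. Activity was expressed as % of a triple-combination CFTR modulator control (3 μM, 3 μM, 300 nM acute).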

T1 sequence (P13569 with tags, fused parts or gaps DEL508-508): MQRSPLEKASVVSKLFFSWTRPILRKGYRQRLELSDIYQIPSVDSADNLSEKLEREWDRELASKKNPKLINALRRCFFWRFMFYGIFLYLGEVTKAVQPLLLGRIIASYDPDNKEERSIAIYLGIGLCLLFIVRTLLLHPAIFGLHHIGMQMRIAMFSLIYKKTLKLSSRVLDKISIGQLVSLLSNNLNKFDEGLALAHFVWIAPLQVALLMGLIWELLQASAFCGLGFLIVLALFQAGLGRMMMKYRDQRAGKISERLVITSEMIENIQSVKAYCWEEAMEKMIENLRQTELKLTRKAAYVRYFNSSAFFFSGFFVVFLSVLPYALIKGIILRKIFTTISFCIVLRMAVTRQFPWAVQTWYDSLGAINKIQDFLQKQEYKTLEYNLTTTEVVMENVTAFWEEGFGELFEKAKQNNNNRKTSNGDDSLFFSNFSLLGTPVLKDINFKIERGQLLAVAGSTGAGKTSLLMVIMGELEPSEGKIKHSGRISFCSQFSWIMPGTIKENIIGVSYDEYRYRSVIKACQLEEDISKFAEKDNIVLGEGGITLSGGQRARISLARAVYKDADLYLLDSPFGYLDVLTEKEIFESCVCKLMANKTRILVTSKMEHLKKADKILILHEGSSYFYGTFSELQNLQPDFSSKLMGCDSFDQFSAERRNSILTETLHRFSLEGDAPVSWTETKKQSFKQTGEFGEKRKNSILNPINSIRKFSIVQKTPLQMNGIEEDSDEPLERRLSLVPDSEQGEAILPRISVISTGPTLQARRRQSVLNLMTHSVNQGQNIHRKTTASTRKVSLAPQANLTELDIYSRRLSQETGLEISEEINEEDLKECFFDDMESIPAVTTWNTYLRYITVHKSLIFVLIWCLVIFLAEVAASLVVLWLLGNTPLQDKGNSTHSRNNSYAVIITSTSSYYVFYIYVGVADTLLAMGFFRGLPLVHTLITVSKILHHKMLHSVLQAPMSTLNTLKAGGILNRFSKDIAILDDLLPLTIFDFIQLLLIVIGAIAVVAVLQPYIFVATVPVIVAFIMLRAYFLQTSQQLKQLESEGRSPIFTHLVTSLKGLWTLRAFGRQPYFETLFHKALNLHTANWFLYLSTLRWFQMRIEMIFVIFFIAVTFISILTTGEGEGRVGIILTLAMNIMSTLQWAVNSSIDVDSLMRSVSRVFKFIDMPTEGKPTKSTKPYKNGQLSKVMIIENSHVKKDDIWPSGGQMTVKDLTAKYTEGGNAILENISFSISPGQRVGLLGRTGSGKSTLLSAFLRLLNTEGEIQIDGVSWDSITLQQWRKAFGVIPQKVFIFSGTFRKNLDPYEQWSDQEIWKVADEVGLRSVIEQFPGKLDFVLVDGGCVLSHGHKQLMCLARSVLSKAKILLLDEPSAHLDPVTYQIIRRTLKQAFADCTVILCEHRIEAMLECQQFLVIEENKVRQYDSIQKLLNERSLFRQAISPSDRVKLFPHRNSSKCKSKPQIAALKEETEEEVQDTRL

Cc1cccc(C)c1-c1cc2nc(n1)NS(=O)(=O)c1cccc(c1)C(=O)N[C@@H]1CN(C3CCC4(CC3)CC4)C[C@H]1O2 [Compound 376]
Ent. B Max Activity (CFTR [1]; Table 9): ++ (++ is 30-60%) | pEC50 (CFTR [1]; Table 9): > 6.00 | Ent. A Max Activity (CFTR [2]; Table 9): +++ (+++ is >60%) | pEC50 (CFTR [2]; Table 9): > 6.00

Cc1cccc(C)c1-c1cc2nc(n1)NS(=O)(=O)c1cccc(c1)C(=O)N[C@@H]1CN(CCC(C)(C)C)C[C@H]1O2 [Compound 64, (3R,7R)-5-(3,3-Dimethylbutyl)-19-(2,6-dimethylphenyl)-2-oxa-15λ^6-thia-5,8,16,18,21-pentaazatetracyclo[15.3.1.110,14.03,7]docosa-1(20),10(22),11,13,17(21),18-hexaene-9,15,15-trione]
Ent. B Max Activity (CFTR [1]; Table 9): ++ (++ is 30-60%) | pEC50 (CFTR [1]; Table 9): > 6.00 | Ent. A Max Activity (CFTR [2]; Table 9): +++ (+++ is >60%) | pEC50 (CFTR [2]; Table 9): > 6.00

Cc1cccc(C)c1-c1cc2nc(n1)NS(=O)(=O)c1cccc(c1)C(=O)N[C@@H](CC13CC4CC(CC(C4)C1)C3)CO2 (single isomer, unassigned) [Compound 110, 11-(1-adamantylmethyl)-6-(2,6-dimethylphenyl)-2,2-dioxo-9-oxa-2λ^6-thia-3,5,12,19-tetrazatricyclo[12.3.1.14,8]nonadeca-1(18),4(19),5,7,14,16-hexaen-13-one]
Ent. B Max Activity (CFTR [1]; Table 9): +++ (+++ is >60%) | pEC50 (CFTR [1]; Table 9): > 6.00 | Ent. A Max Activity (CFTR [2]; Table 9): +++ (+++ is >60%) | pEC50 (CFTR [2]; Table 9): > 6.00

Cc1cccc(C)c1-c1cc2nc(n1)NS(=O)(=O)c1cccc(c1)C(=O)N[C@@H]1CN(Cc3ccccc3)C[C@H]1O2 [Compound 383]
Ent. B Max Activity (CFTR [1]; Table 9): +++ (+++ is >60%) | pEC50 (CFTR [1]; Table 9): > 6.00 | Ent. A Max Activity (CFTR [2]; Table 9): +++ (+++ is >60%) | pEC50 (CFTR [2]; Table 9): > 6.00

Cc1ccc(C2CNC(=O)c3cccc(c3)S(=O)(=O)Nc3nc(cc(-c4c(C)cccc4C)n3)O2)cc1 (stereo not shown) [Compound 405]
Ent. B Max Activity (CFTR [1]; Table 8): ++ (++ is 306%) | pEC50 (CFTR [1]; Table 8): > 6.00 | pEC50 (CFTR [2]; Table 8): > 6.00

Cc1cccc(C)c1-c1cc2nc(n1)NS(=O)(=O)c1cccc(c1)C(=O)NCC(CC(C)C)(CC(C)C)CO2 [Compound 496]
Ent. B Max Activity (CFTR [1]; Table 9): +++ (+++ is >60%) | pEC50 (CFTR [1]; Table 9): > 6.00 | Ent. A Max Activity (CFTR [2]; Table 9): +++ (+++ is >60%) | pEC50 (CFTR [2]; Table 9): > 6.00

Cc1cccc(C)c1-c1cc2nc(n1)NS(=O)(=O)c1cccc(c1)C(=O)N[C@@H]1CN(C(C)C)C[C@H]1O2 [Compound 375]
Ent. B Max Activity (CFTR [1]; Table 9): ++ (++ is 30-60%) | pEC50 (CFTR [1]; Table 9): 4.52 to 5.52 | Ent. A Max Activity (CFTR [2]; Table 9): +++ (+++ is >60%) | pEC50 (CFTR [2]; Table 9): 4.52 to 5.52

Cc1cccc(C)c1-c1cc2nc(n1)NS(=O)(=O)c1cccc(c1)C(=O)N[C@@H]1CN(C(=O)CC(C)(C)C)C[C@H]1O2 [Compound 381]
Ent. B Max Activity (CFTR [1]; Table 9): ++ (++ is 30-60%) | Ent. A Max Activity (CFTR [2]; Table 9): ++ (++ is 30-60%) | pEC50 (CFTR [2]; Table 9): 4.52 to 5.52

Cc1cccc(C)c1-c1cc2nc(n1)NS(=O)(=O)c1cccc(c1)C(=O)NC[C@H](c1ccc(C(C)(C)C)cc1)O2 (single isomer, unassigned) [Compound 4]
Ent. B Max Activity (CFTR [1]; Table 8): + (+ is <30%) | Ent. A Max Activity (CFTR [2]; Table 8): + (+ is <30%) | pEC50 (CFTR [2]; Table 8): 4.52 to 5.52

Cc1cccc(C)c1-c1cc2nc(n1)NS(=O)(=O)c1cccc(c1)C(=O)N[C@@H]1CN(C3CC4(CCCC4)C3)C[C@H]1O2 [Compound 56, (3R,7R)-19-(2,6-Dimethylphenyl)-5-{spiro[3.4]octan-2-yl}-2-oxa-15λ^6-thia-5,8,16,18,21-pentaazatetracyclo[15.3.1.110,14.03,7]docosa-1(20),10(22),11,13,17(21),18-hexaene-9,15,15-trione]
Ent. B Max Activity (CFTR [1]; Table 9): ++ (++ is 30-60%) | pEC50 (CFTR [1]; Table 9): > 6.00 | Ent. A Max Activity (CFTR [2]; Table 9): +++ (+++ is >60%) | pEC50 (CFTR [2]; Table 9): > 6.00

Cc1cccc(Cc2cccc(C)c2-c2cc3nc(n2)NS(=O)(=O)c2cccc(c2)C(=O)N[C@H](CC(C)C)CO3)c1 [Compound 170]
Ent. B Max Activity (CFTR [1]; Table 9): +++ (+++ is >60%) | pEC50 (CFTR [1]; Table 9): > 6.00 | Ent. A Max Activity (CFTR [2]; Table 9): +++ (+++ is >60%) | pEC50 (CFTR [2]; Table 9): > 6.00

Cc1cccc(C)c1-c1cc2nc(n1)NS(=O)(=O)c1cccc(c1)C(=O)NC[C@H](c1ccc(/C=C/C(C)(C)C)cc1)O2 (stereo in doubt) [Compound 150]
Ent. B Max Activity (CFTR [1]; Table 9): ++ (++ is 30-60%) | pEC50 (CFTR [1]; Table 9): > 6.00 | Ent. A Max Activity (CFTR [2]; Table 9): ++ (++ is 30-60%) | pEC50 (CFTR [2]; Table 9): > 6.00

Cc1cccc(C)c1-c1cc2nc(n1)NS(=O)(=O)c1cccc(c1)C(=O)NC[C@H](c1ccc(CCC(C)(C)C)cc1)O2 (stereo in doubt) [Compound 149]
Ent. B Max Activity (CFTR [1]; Table 9): +++ (+++ is >60%) | pEC50 (CFTR [1]; Table 9): > 6.00 | Ent. A Max Activity (CFTR [2]; Table 9): +++ (+++ is >60%) | pEC50 (CFTR [2]; Table 9): > 6.00

Cc1cccc(C)c1-c1cc2nc(n1)NS(=O)(=O)c1cc(n[nH]1)C(=O)N[C@H](CC(C)C)CO2 [Compound 78, (10R)-15-(2,6-dimethylphenyl)-10-isobutyl-3,3-dioxo-12-oxa-3λ^6-thia-2,5,6,9,16,17-hexazatricyclo[11.3.1.14,7]octadeca-1(17),4(18),6,13,15-pentaen-8-one]
Ent. B Max Activity (CFTR [1]; Table 9): ++ (++ is 30-60%) | pEC50 (CFTR [1]; Table 9): 4.52 to 5.52 | Ent. A Max Activity (CFTR [2]; Table 9): ++ (++ is 30-60%) | pEC50 (CFTR [2]; Table 9): 4.52 to 5.52

Cc1cccc(C)c1-c1cc2nc(n1)NS(=O)(=O)c1cccc(c1)C(=O)N[C@H](CC(C)C)[C@@H](c1ccc(C(C)(C)C)cc1)O2 (single isomer, unassigned) [Compound 39]
Ent. B Max Activity (CFTR [1]; Table 9): +++ (+++ is >60%) | pEC50 (CFTR [1]; Table 9): > 6.00 | Ent. A Max Activity (CFTR [2]; Table 9): +++ (+++ is >60%) | pEC50 (CFTR [2]; Table 9): > 6.00

Cc1cccc(C)c1-c1cc2nc(n1)NS(=O)(=O)c1cccc(c1)C(=O)N[C@@H]1CN(Cc3ccc(C(F)(F)F)cc3)C[C@H]1O2 [Compound 379]
Ent. B Max Activity (CFTR [1]; Table 9): ++ (++ is 30-60%) | pEC50 (CFTR [1]; Table 9): > 6.00 | Ent. A Max Activity (CFTR [2]; Table 9): +++ (+++ is >60%) | pEC50 (CFTR [2]; Table 9): > 6.00

O=C1N[C@@H]2CCCC/C=C/c3ccccc3-c3cc(nc(n3)NS(=O)(=O)c3cccc1c3)OC2 [Compound 219]
Ent. B Max Activity (CFTR [1]; Table 9): +++ (+++ is >60%) | pEC50 (CFTR [1]; Table 9): > 6.00

Cc1cccc(C)c1-c1cc2nc(n1)NS(=O)(=O)c1cccc(c1)C(=O)NCC(c1ccc(CCCO)cc1)O2 (stereo not shown) [Compound 122]
Ent. B Max Activity (CFTR [1]; Table 9): +++ (+++ is >60%) | pEC50 (CFTR [1]; Table 9): 5.52 to 6.00

O=C1N[C@@H]2CCCCCC/C=C/c3ccccc3-c3cc(nc(n3)NS(=O)(=O)c3cccc1c3)OC2 [Compound 36, (10E,18R)-30-oxa-26λ^6-thia-19,27,29,32-tetraazapentacyclo[16.11.2.13,28.121,25.04,9]tritriaconta-1,3(32),4(9),5,7,10,21(33),22,24,28-decaene-20,26,26-trione]
Ent. B Max Activity (CFTR [1]; Table 9): +++ (+++ is >60%) | pEC50 (CFTR [1]; Table 9): > 6.00
